Data on one compound can be found in US8993595B2, “Macrocyclic serine protease inhibitors” (priority 2009, dated 2015).

Broadly, the Papp is a coefficient for how fast a substance crosses the barrier. Read a low Papp as poor permeation. What is called efflux ratio is a quotient of directional permeabilities that is used to spot active efflux. The EC50 is the concentration at which the effect is half-maximal. The low end stands for an effect from little substance, the high end for a need for much substance. The term IC50 denotes the point on the concentration scale where inhibition reaches its midpoint.

For series [1], the system named is Replicon cells (genotype 1b). As to the kind of experiment: Long-term treatment assay in replicon cells. In kind it is cell-based, HCV. On the procedure: Compound 52 was tested in a long-term treatment assay. Replicon cells (genotype 1b) were treated with the compound, without G418, for 14 days, and the level of replicon RNA was measured at multiple time points. At the end of the 14-day treatment, cells were cultured in the absence of the compound, but with or without G418, in 10 cm dishes for 21 days. Surviving cell colonies were then stained with crystal violet and counted.
In general terms: Replicon systems follow genome replication, usually without infectious particles.

Another series is described as follows: in vitro. The following applies: human, Caco-2, pH 7.4. On the procedure: Caco-2 cells were grown to confluence on collagen-coated, microporous, polycarbonate membranes in 12-well Costar Transwell plates. 5 μM of compound 52 was prepared in Hanks balanced salt solution containing 10 mM HEPES and 15 mM glucose at a pH of 7.4. Cell monolayers were dosed on the apical side (A-to-B) or basolateral side (B-to-A). Samples were taken from the receiver chambers at 120 min and quantified by LC-MS/MS.

In another series the test system is 1a replicon. As to the kind of experiment: HCV replicon luciferase assay, genotype 1a. In kind it is cell-based. The procedure: Compound 52 was tested against genotypes 1a, 1b, and 2a in an HCV replicon assay as described in Example 2. Replicon cells (genotype 1a or 1b) were seeded onto 96-well plates, cultured for three days in the presence of the compound, and subject to a luciferase assay.

Series [2] relates to H1a-luc cell line (genotype 1a replicon, unselected). Nature of the series: Extent of resistance after selection, H1a-luc. Type of series: cell-based, HCV. As to conditions: selecting conc. 0 nM. The procedure:
(§1) Replicon cells (genotype 1a or 1b) were treated with various concentrations of compound 52 in the presence of G418. Treatment-emergent genotypic changes were identified by population sequencing of NS3 (both protease and helicase regions). The activity of compound 52 and other compounds was evaluated by NS5A western blot after selection or luciferase assay during and after selection.

Series [3] concerns B-1a cell line (genotype 1a replicon selected with 10 nM, D168A). As to the kind of experiment: Extent of resistance after selection, B-1a. Type of series: cell-based, HCV. The following applies: selecting conc. 10 nM. On the procedure: as §1
A further series has as its target T1, human UGT1A1 (Homo sapiens, UniProt P22309).
T1 construct: examined using human liver microsomes and bilirubin as substrate; from tissue; host or cells: human liver microsomes
Nature of the series: UGT1A1 inhibition assay. Type of series: in vitro ADME. The following applies: human liver microsomes, bilirubin as substrate. On the procedure: (§2) Compound 52 was incubated with human CYP450 cDNA-expressed isoenzymes according to the protocol (BD Bioscience). For CYP2C9, a luminogenic substrate was used with the P450-Glo™ kit. In addition, the effect of the compound on CYP2C9-mediated diclofenac metabolism was measured by LC-UV. The potential inhibitory effect of the compound on human UGT1A1 was examined using human liver microsomes and bilirubin as substrate. The metabolites (mono- and di-glucuronidated bilirubin) were measured by LC-UV.
(In general: Liver microsomes are vesicles of endoplasmic reticulum, rich in cytochrome P450 enzymes.)

Series [4] deals with JFH-1 (genotype 2a) virus in HPC cells. Nature of the series: HCV in vitro infection core ELISA assay. In kind it is cell-based. The procedure:
HPC cells were infected with JFH-1 (genotype 2a) and treated with the compound for 4 days (virus inoculum was removed after 16 hrs). Remaining virus was measured by an anti-HCV core ELISA. Compound cytotoxicity was also measured in parallel using a colorimetric proliferation assay as described in Example 5.
The HCV in vitro infection core ELISA assay measures the ability of a test compound to inhibit replication of an infectious HCV (strain JFH-1; genotype 2a) in cell culture. […] We have developed this model for determining the efficacy of antiviral compounds against an infectious virus in vitro using HCV producing cells (HPC), a proprietary Huh-7-derived cell sublineage capable of propagating the JFH-1 HCV virus. The readout of the assay is quantification of HCV core protein by ELISA 5 days post infection with JFH-1 virus and treatment with a test compound. […]
OPD solution was prepared using 1 OPD tablet+12 mL citrate/phosphate buffer (16 mM citric acid, 27 mM Na2HPO4) plus 5 μL 30% H2O2 per plate. […] The reaction was stopped with 100 μL/well of 2N H2SO4, and absorbance measured at A490 nm in a Victor^3 V 1420 multilabel counter (Perkin Elmer). The EC50 values for each compound were calculated from dose response curves from the resulting best-fit equations determined by Microsoft Excel and XLfit 4.1 software. […]
On the technique in general: ELISA stands for enzyme-linked immunosorbent assay.

Series [5] deals with A-1a cell line (genotype 1a replicon selected with 10 nM, D168A). Nature of the series: Extent of resistance after selection, A-1a. Type of series: cell-based, HCV. The following applies: selecting conc. 10 nM. On the procedure:
as §1

For another series, the target named is T2, human CYP450 3A4 (Homo sapiens, UniProt P08684).
T2 construct: purchased BD Bioscience
Nature of the series: CYP450 inhibition assay, 3A4. Type of series: in vitro ADME. On the procedure: as §2

T2 sequence (P08684 whole entry): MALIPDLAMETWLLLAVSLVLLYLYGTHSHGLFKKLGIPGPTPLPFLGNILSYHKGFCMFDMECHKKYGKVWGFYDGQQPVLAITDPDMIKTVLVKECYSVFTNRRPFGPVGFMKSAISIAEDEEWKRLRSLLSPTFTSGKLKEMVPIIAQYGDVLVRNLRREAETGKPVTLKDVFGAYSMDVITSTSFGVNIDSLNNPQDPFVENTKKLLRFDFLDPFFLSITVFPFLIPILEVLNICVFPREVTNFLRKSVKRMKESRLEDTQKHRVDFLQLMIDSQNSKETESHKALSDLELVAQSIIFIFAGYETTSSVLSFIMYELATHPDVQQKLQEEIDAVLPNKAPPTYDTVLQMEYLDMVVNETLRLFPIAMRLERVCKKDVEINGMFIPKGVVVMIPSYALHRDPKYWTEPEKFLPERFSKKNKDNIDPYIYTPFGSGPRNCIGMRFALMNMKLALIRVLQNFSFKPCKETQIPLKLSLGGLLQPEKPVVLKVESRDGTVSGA
T1 sequence (P22309 26-533): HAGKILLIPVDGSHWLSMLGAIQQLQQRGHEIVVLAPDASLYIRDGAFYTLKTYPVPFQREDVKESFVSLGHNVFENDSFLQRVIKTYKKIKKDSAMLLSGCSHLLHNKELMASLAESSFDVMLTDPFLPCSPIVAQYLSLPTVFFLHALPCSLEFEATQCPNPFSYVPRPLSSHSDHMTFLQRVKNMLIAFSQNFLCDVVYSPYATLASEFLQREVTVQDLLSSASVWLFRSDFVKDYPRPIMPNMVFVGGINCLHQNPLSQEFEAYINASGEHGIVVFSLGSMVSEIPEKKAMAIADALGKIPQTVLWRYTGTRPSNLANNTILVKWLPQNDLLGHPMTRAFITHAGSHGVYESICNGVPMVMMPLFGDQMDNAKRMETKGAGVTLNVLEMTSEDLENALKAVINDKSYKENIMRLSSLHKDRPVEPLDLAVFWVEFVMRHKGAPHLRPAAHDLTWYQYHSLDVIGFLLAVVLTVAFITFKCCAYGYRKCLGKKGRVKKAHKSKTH

Regarding `COc1ccc2c(O[C@H]3CCN4C(=O)N(C)CCCC/C=C\[C@@H]5C[C@@]5(C(=O)NS(=O)(=O)C5(C)CC5)NC(=O)[C@@H]4C3)cc(-c3nc(C(F)(F)F)cs3)nc2c1C` [Compound 52, 1-methyl-cyclopropanesulfonic acid{(Z)-(1S,4R,6S,18S)-18-[7-methoxy-8-methyl-2-(4-trifluoromethyl-thiazol-2-yl)-quinolin-4-yloxy]-13-methyl-2,14-dioxo-3,13,15-triaza-tricyclo[13.4.0.0*4,6*]nonadec-7-ene-4-carbonyl}amide], the “colonies remained on average” value in [1] (14-day treatment with 10 nM, then cultured with G418 for 21 days) worked out at 6 colonies. For the same compound, the “mean maximal RNA reduction” value in series [1] (replicon RNA, after 10 days of treatment with 10 nM, without G418) was found to be 3.7 log10. Moreover, the apparent permeability (Papp) in the series “in vitro” was found to be 1.8 ×10⁻⁶ cm/s. Further, in the series “in vitro”, the efflux ratio amounted to 2.7. For the same compound, the “Selectivity Index” value is given as >22,647 in the series on 1a replicon and 2,568 in series [4] (2a virus). Moreover, the EC50 was 3.4 ± 1.1 nM in the series on 1a replicon (Hepatitis C virus, 72 h, three days, luciferase assay) and 4.4 ± 0.6 nM in series [4] (Hepatitis C virus, 96 h, 2a virus (JFH-1), HPC cells, 4 days, anti-HCV core ELISA). Also, the Fold-Change in [2] is 1; in series [3] it was more than 3690; in series [5], 589 ± 442. In addition, the 50% inhibitory concentration (IC50) at human UGT1A1 and against human CYP450 3A4 was not below 10000 nM in each case.
